Data as given in patent publication US20070128217A1 (priority 2003, published 2007).

Experiments:
[1] = test system: control sera (pooled serum of ten healthy LUMC hospital workers; commercial negative donor pooled serum from the Dutch bloodbank); assay type: binding, human; parameters: Binding of Control serum LUMC to linear peptides / Binding of Control serum Blood-bank to linear peptides / Binding of Control serum LUMC to looped peptides / Binding of Control Serum Blood-Bank to Looped peptides / Binding of Control serum LUMC to linear peptides of the protein M of SARS-CoV Urbani / Binding of Control serum Blood-bank to linear peptides of the protein M of SARS-CoV Urbani / Binding of Control serum LUMC to looped peptides of the protein M of SARS-CoV Urbani / Binding of Control Serum Blood-Bank to Looped peptides of the protein M of SARS-CoV Urbani: unit not given here
[2] = test system: rabbit serum obtained by immunizing a rabbit with the SARS-CoV strain Frankfurt 1; assay type: binding; parameters: Binding of a rabbit serum to linear peptides / Binding of a rabbit serum to looped peptides / Rabbit serum linear peptides / Rabbit serum looped peptides / Binding of a rabbit serum to linear peptides of protein N of SARS-CoV Urbani (Rabbit serum linear peptides) / Binding of a rabbit serum to looped/cyclic peptides of protein N of SARS-CoV Urbani (Rabbit serum looped peptides): unit not given here
[3] = test system: antibodies in sera from SARS patients (sera 1a, 1b, 2, 6, 37, 62, London, SARS-yellow, SARS-green); assay type: binding, human; parameters: Binding of serum 6 to linear peptides of protein X1 of SARS-CoV Urbani / Binding of serum 37 to linear peptides of protein X1 of SARS-CoV Urbani / Binding of serum 6 to looped/cyclic peptide (PEPSCAN-ELISA) / Binding of serum 37 to looped/cyclic peptide (PEPSCAN-ELISA) / Binding of serum 37 to looped/cyclic peptides of protein X1 of SARS-CoV Urbani / Binding of serum 6 to linear peptides of protein X2 / Binding of serum 37 to linear peptides of protein X2 / Binding of serum 37 to looped/cyclic peptides of protein X2 of SARS-CoV Urbani / Binding of serum 6 to linear peptides of protein M of SARS-CoV Urbani / Binding of serum 37 to linear peptides of protein M of SARS-CoV Urbani / Binding of serum 6 to looped/cyclic peptides of protein M of SARS-CoV Urbani / Binding of serum 37 to looped/cyclic peptides of protein M of SARS-CoV Urbani / Binding of serum 6 to linear peptides of protein X3 of SARS-CoV Urbani / Binding of serum 37 to linear peptides of protein X3 of SARS-CoV Urbani / Binding of serum 37 to looped/cyclic peptides of protein X3 of SARS-CoV Urbani / Binding of serum 6 to linear peptides of protein X4 of SARS-CoV Urbani / Binding of serum 37 to linear peptides of protein X4 of SARS-CoV Urbani / Binding of serum 37 to looped/cyclic peptides of protein X4 of SARS-CoV Urbani / Binding of serum 6 to linear peptides of protein X5 of SARS-CoV Urbani / Binding of serum 37 to linear peptides of protein X5 of SARS-CoV Urbani / Binding of serum 37 to looped/cyclic peptides of protein X5 of SARS-CoV Urbani / Binding of serum 6 to linear peptides of protein N of SARS-CoV Urbani / Binding of serum 37 to linear peptides of protein N of SARS-CoV Urbani / Binding of serum 6 to linear peptide (PEPSCAN-ELISA) / Binding of serum 1a to looped/cyclic peptides of protein N of SARS-CoV Urbani / Binding of serum 1b to looped/cyclic peptides of protein N of SARS-CoV Urbani / Binding of serum 2 to looped/cyclic peptides of protein N of SARS-CoV Urbani / Binding of serum 6 to looped/cyclic peptides of protein N of SARS-CoV Urbani / Binding of serum 37 to looped/cyclic peptides of protein N of SARS-CoV Urbani / Binding of serum 62 to looped/cyclic peptides of protein N of SARS-CoV Urbani / Binding of serum London to looped/cyclic peptides of protein N of SARS-CoV Urbani / Binding of serum SARS-green to looped/cyclic peptides of protein N of SARS-CoV Urbani: unit not given here

**Q.** With LIYFLQCINACRIIM as the sequence, how does the “Binding of Control Serum Blood-Bank to Looped peptides” value [1] read?
**A.** 0.9

**Q.** What about the “Binding of Control serum Blood-bank to linear peptides” value [1] of the same sequence?
**A.** 0.6

**Q.** And the “Binding of Control serum LUMC to linear peptides” value [1]?
**A.** 0.6

**Q.** And the “Binding of Control serum LUMC to looped peptides” value [1]?
**A.** 0.7

**Q.** And the “Binding of a rabbit serum to linear peptides” value [2]?
**A.** 0.1

**Q.** What about the “Binding of a rabbit serum to looped peptides” value [2] of the same sequence?
**A.** 0.3

**Q.** And the “Binding of serum 1a to linear peptides of protein X1 of SARS-CoV Urbani” value [3]?
**A.** 0.7

**Q.** What about the “Binding of serum 1a to looped/cyclic peptide (PEPSCAN-ELISA)” value [3] of the same sequence?
**A.** 0.2

**Q.** And the “Binding of serum 1b to linear peptides of protein X1 of SARS-CoV Urbani” value [3]?
**A.** 0.6

**Q.** And the “Binding of serum 1b to looped/cyclic peptide (PEPSCAN-ELISA)” value [3]?
**A.** 0.4

**Q.** What about the “Binding of serum 2 to linear peptides of protein X1 of SARS-CoV Urbani” value [3] of the same sequence?
**A.** 0.6

**Q.** What about the “Binding of serum 2 to looped/cyclic peptide (PEPSCAN-ELISA)” value [3] of the same sequence?
**A.** 0.7

**Q.** And the “Binding of serum 6 to linear peptides of protein X1 of SARS-CoV Urbani” value [3]?
**A.** 0.5

**Q.** What about the “Binding of serum 6 to looped/cyclic peptide (PEPSCAN-ELISA)” value [3] of the same sequence?
**A.** 1.2

**Q.** And the “Binding of serum 37 to linear peptides of protein X1 of SARS-CoV Urbani” value [3]?
**A.** 0.6

**Q.** What about the “Binding of serum 37 to looped/cyclic peptide (PEPSCAN-ELISA)” value [3] of the same sequence?
**A.** 0.2

**Q.** And the “Binding of serum 62 to linear peptides of protein X1 of SARS-CoV Urbani” value [3]?
**A.** 0.6

**Q.** What about the “Binding of serum 62 to looped/cyclic peptide (PEPSCAN-ELISA)” value [3] of the same sequence?
**A.** 0.4

**Q.** And the “Binding of serum London to linear peptides of protein X1 of SARS-CoV Urbani” value [3]?
**A.** 0.3

**Q.** What about the “Binding of serum London to looped/cyclic peptide (PEPSCAN-ELISA)” value [3] of the same sequence?
**A.** 1.1

**Q.** What about the “Binding of serum SARS-green to linear peptides of protein X1 of SARS-CoV Urbani” value [3] of the same sequence?
**A.** 0.2

**Q.** What about the “Binding of serum SARS-green to looped/cyclic peptide (PEPSCAN-ELISA)” value [3] of the same sequence?
**A.** 0.6

**Q.** And the “Binding of serum SARS-yellow to linear peptides of protein X1 of SARS-CoV Urbani” value [3]?
**A.** 0.4

**Q.** What about the “Binding of serum SARS-yellow to looped/cyclic peptide (PEPSCAN-ELISA)” value [3] of the same sequence?
**A.** 0.6

**Q.** Which results are given for LKEPCPSGTYEGNSP?
**A.** Binding of Control Serum Blood-Bank to Looped peptides [1]: 0.5; Binding of Control serum Blood-bank to linear peptides [1]: 0.6; Binding of Control serum LUMC to linear peptides [1]: 0.3; Binding of Control serum LUMC to looped peptides [1]: 0.7; Rabbit serum linear peptides [2]: 0.4; Rabbit serum looped peptides [2]: 0.0; Binding of serum 1a to linear peptides of protein X4 of SARS-CoV Urbani [3]: 0.7; Binding of serum 1a to looped/cyclic peptides of protein X4 of SARS-CoV Urbani [3]: 0.6; Binding of serum 1b to linear peptides of protein X4 of SARS-CoV Urbani [3]: 0.4; Binding of serum 1b to looped/cyclic peptides of protein X4 of SARS-CoV Urbani [3]: 0.5; Binding of serum 2 to linear peptides of protein X4 of SARS-CoV Urbani [3]: 0.4; Binding of serum 2 to looped/cyclic peptides of protein X4 of SARS-CoV Urbani [3]: 0.5; Binding of serum 6 to linear peptides of protein X4 of SARS-CoV Urbani [3]: 0.3; Binding of serum 6 to looped/cyclic peptides of protein X4 of SARS-CoV Urbani [3]: 0.3; Binding of serum 37 to linear peptides of protein X4 of SARS-CoV Urbani [3]: 0.6; Binding of serum 37 to looped/cyclic peptides of protein X4 of SARS-CoV Urbani [3]: 0.5; Binding of serum 62 to linear peptides of protein X4 of SARS-CoV Urbani [3]: 0.7; Binding of serum 62 to looped/cyclic peptides of protein X4 of SARS-CoV Urbani [3]: 0.6; Binding of serum London to linear peptides of protein X4 of SARS-CoV Urbani [3]: 0.9; Binding of serum London to looped/cyclic peptides of protein X4 of SARS-CoV Urbani [3]: 0.3; Binding of serum SARS-green to linear peptides of protein X4 of SARS-CoV Urbani [3]: 0.5; Binding of serum SARS-green to looped/cyclic peptides of protein X4 of SARS-CoV Urbani [3]: 0.6; Binding of serum SARS-yellow to linear peptides of protein X4 of SARS-CoV Urbani [3]: 0.2; Binding of serum SARS-yellow to looped/cyclic peptides of protein X4 of SARS-CoV Urbani [3]: 0.2
